Data from patent US9580416B2, “Inhibitors of Bruton's tyrosine kinase” (PHARMACYCLICS LLC, priority 2014, dated 2017).

Experiments:
Format in all cases: biochemical
[1] = target: Lck (Homo sapiens, UniProt P06239); assay: Lck kinase activity, TR-FRET assay; settings: read-out: LCK (IC50)
Outline: (§1)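 Enzyme (Btk 0.5 nM; Lck 6 nM) reacted 1 h with inhibitor, ATP at Km and biotin-peptide substrate in pH 7.4 buffer, 10% DMSO. Phosphopeptide detected by Eu-p-Tyr100 antibody plus streptavidin-APC (665/615 nm). IC50 calculated from fitted Ki(app) via ATP/Km correction plus half total enzyme.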

[2] = target: EGFR (Homo sapiens, UniProt P00533); assay: Inhibition of a panel of kinases, in vitro HotSpot kinase assay: EGFR
Sequence of EGFR (P00533 25-1210): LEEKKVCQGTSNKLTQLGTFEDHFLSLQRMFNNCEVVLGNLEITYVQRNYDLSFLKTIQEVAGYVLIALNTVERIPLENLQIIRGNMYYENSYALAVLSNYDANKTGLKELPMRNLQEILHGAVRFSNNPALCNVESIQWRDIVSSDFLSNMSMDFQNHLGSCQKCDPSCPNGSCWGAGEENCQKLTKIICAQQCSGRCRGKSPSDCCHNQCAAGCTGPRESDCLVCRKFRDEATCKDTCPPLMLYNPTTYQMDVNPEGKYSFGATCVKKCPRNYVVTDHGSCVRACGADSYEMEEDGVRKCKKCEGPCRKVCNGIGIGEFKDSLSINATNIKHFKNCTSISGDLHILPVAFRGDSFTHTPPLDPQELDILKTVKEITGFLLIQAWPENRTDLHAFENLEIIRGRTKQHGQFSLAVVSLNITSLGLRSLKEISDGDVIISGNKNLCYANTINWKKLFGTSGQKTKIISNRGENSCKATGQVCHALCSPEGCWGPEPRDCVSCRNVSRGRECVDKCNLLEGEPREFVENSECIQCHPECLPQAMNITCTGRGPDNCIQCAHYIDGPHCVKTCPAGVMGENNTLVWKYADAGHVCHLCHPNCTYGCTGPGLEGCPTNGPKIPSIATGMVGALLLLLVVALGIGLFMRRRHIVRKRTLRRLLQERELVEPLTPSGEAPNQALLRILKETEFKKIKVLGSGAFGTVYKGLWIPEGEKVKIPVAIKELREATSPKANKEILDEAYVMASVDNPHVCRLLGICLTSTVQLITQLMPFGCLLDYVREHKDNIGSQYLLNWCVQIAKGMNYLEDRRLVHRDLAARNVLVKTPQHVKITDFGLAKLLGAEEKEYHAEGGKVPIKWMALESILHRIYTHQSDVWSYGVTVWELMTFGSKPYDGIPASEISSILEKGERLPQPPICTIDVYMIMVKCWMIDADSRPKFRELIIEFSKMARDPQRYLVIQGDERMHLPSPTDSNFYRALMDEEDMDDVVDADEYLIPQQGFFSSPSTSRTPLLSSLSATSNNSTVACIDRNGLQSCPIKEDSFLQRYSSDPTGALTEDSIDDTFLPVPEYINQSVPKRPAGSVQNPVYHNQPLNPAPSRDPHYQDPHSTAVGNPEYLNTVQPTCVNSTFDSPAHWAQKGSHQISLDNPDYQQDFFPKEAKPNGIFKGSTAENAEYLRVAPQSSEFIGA
Experimental: (§2) The degree of inhibition of a panel of kinases is determined using the in vitro HotSpot kinase assay (purified enzymes, ^33P-ATP, an appropriate substrate and 1 uM ATP).

[3] = target: Btk (Homo sapiens, UniProt Q06187); assay: Btk kinase activity, TR-FRET assay; settings: read-out: Btk (IC50)
Sequence of Btk (Q06187 whole entry): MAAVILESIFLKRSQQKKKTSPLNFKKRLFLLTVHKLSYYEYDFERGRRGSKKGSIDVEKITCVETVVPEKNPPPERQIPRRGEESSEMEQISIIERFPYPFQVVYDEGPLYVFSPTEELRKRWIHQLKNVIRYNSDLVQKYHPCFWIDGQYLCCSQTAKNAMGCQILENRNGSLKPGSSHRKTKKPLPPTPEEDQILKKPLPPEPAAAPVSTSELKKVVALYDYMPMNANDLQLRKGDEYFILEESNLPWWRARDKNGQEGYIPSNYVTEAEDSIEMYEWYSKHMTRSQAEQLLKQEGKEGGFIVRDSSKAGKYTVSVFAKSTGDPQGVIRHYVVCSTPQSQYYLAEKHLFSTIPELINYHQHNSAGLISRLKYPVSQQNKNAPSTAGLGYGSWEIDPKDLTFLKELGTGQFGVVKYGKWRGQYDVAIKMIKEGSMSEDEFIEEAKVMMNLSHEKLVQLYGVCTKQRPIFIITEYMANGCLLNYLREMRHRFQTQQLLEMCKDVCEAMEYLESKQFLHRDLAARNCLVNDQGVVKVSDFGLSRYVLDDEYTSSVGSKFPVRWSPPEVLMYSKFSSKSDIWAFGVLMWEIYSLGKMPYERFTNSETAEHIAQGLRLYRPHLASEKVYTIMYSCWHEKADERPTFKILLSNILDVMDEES
Outline: as §1

[4] = target: T1, JAK3 (Homo sapiens, UniProt P52333); assay: Inhibition of a panel of kinases, in vitro HotSpot kinase assay: JAK3
T1 sequence (P52333 1-1124): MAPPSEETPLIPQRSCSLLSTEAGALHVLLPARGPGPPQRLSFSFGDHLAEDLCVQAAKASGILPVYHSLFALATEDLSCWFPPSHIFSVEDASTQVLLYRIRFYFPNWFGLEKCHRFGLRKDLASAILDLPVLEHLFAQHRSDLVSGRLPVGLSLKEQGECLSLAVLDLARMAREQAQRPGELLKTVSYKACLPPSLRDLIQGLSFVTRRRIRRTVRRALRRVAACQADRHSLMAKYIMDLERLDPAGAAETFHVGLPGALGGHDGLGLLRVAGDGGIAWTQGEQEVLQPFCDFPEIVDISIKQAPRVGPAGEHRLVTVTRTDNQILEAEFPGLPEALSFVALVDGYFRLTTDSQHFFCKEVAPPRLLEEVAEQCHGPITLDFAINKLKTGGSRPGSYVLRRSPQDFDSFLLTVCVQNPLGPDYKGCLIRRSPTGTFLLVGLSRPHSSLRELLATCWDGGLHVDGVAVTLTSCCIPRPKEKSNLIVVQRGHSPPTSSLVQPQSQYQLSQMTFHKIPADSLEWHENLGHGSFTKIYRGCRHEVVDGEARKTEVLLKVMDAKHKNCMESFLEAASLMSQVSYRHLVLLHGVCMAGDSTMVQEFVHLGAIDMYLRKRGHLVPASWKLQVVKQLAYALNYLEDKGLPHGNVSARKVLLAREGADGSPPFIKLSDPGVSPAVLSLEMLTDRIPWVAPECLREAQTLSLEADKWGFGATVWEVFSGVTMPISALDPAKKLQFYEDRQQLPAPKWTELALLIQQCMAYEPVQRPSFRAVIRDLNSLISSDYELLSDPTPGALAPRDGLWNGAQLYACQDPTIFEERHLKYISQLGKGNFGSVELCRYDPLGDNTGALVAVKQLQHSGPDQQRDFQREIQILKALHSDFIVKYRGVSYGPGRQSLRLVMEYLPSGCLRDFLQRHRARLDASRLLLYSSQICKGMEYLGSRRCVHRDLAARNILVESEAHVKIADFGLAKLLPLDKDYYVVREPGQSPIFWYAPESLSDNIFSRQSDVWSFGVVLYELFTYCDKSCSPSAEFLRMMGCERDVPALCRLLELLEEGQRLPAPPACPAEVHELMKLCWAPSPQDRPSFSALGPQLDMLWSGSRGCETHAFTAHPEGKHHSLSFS
Experimental: as §2

Sequence of Lck (P06239 whole entry, species assumed): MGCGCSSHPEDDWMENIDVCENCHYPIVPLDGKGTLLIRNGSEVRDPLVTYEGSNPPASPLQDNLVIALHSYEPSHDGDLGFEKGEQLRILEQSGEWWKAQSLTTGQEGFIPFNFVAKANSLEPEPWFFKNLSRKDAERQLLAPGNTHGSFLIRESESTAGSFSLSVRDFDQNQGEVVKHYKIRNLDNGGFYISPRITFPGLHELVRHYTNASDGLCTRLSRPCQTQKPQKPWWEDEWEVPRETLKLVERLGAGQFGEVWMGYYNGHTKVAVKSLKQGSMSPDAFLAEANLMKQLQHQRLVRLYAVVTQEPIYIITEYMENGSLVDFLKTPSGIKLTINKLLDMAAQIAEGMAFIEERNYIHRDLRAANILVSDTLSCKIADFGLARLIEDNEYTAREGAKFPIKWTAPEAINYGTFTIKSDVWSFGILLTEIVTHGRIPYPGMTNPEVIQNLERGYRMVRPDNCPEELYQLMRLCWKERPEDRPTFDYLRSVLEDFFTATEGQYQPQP

Row | IC50 [1] | IC50 [2] | IC50 [3] | IC50 [4] | Structure (SMILES)
1 | 0.1 to 1 µM | 1 to 10 µM | < 0.1 µM | > 10 µM | Cc1ccnc(NC(=O)c2ccc(Oc3ccnc4[nH]nc(N[C@@H]5CCCN(C(=O)[C@@H]6CCCO6)C5)c34)cc2)c1 (single isomer, unassigned) [compound 94]
2 | > 10 µM | 1 to 10 µM | 0.1 to 1 µM | 0.1 to 1 µM | C=CC(=O)N1CCCC(Nc2n[nH]c3nccc(Oc4ccc(-c5ccc(C(F)(F)F)cn5)cc4)c23)C1 (stereo in doubt) [compound 196, 1-[(3S)-3-[(4-{4-[5-(trifluoromethyl)pyridin-2-yl]phenoxy}-1H-pyrazolo[3,4-b]pyridin-3-yl)amino]piperidin-1-yl]prop-2-en-1-one]
3 | 1 to 10 µM | 0.1 to 1 µM | < 0.1 µM | 1 to 10 µM | C=CC(=O)N1CC[C@@H](Nc2n[nH]c3nccc(Oc4ccc(Cl)cc4)c23)C1 [compound 1]
4 | < 0.1 µM | < 0.1 µM | < 0.1 µM | 0.1 to 1 µM | C=CC(=O)N1CC[C@@H](Nc2n[nH]c3nccc(Oc4ccc(Oc5ccccc5)cc4)c23)C1 [compound 4, 1-[(3R)-3-{[4-(4-phenoxyphenoxy)-1H-pyrazolo[3,4-b]pyridin-3-yl]amino}pyrrolidin-1-yl]prop-2-en-1-one]
5 | < 0.1 µM | < 0.1 µM | < 0.1 µM | > 10 µM | CN(C)C/C=C/C(=O)N1CC[C@@H](Nc2n[nH]c3nccc(Oc4ccc(Oc5ccccc5)cc4)c23)C1 [compound 5, (2E)-4-(dimethylamino)-1-[(3R)-3-{[4-(4-phenoxyphenoxy)-1H-pyrazolo[3,4-b]pyridin-3-yl]amino}pyrrolidin-1-yl]but-2-en-1-one]
6 | < 0.1 µM | < 0.1 µM | < 0.1 µM | 0.1 to 1 µM | C=CC(=O)N1CCC[C@@H](Nc2n[nH]c3nccc(Oc4ccc(Oc5ccccc5)cc4)c23)C1 [compound 6, 1-[(3R)-3-{[4-(4-phenoxyphenoxy)-1H-pyrazolo[3,4-b]pyridin-3-yl]amino}piperidin-1-yl]prop-2-en-1-one]
7 | < 0.1 µM | 0.1 to 1 µM | < 0.1 µM | > 10 µM | CN(C/C=C/C(=O)N1CCC[C@@H](Nc2n[nH]c3nccc(Oc4ccc(Oc5ccccc5)cc4)c23)C1)C1CC1 [compound 8, (2E)-4-[cyclopropyl(methyl)amino]-1-[(3R)-3-{[4-(4-phenoxyphenoxy)-1H-pyrazolo[3,4-b]pyridin-3-yl]amino}piperidin-1-yl]but-2-en-1-one]
8 | < 0.1 µM | < 0.1 µM | < 0.1 µM | > 10 µM | COCCN(C)C/C=C/C(=O)N1CC[C@@H](Nc2n[nH]c3nccc(Oc4ccc(Oc5ccccc5)cc4)c23)C1 [compound 9, (2E)-4-[(2-methoxyethyl)(methyl)amino]-1-[(3R)-3-{[4-(4-phenoxyphenoxy)-1H-pyrazolo[3,4-b]pyridin-3-yl]amino}pyrrolidin-1-yl]but-2-en-1-one]
9 | 0.1 to 1 µM | 0.1 to 1 µM | < 0.1 µM | 0.1 to 1 µM | CN(C)C/C=C/C(=O)N(C)[C@H]1CC[C@@H](Nc2n[nH]c3nccc(Oc4cccc(Oc5ccccc5)c4)c23)CC1 [compound 21, (2E)-4-(dimethylamino)-N-methyl-N-[(1s,4s)-4-{[4-(3-phenoxyphenoxy)-1H-pyrazolo[3,4-b]pyridin-3-yl]amino}cyclohexyl]but-2-enamide]
10 |  | 1 to 10 µM | < 0.1 µM | > 10 µM | CCNC(=O)N1CCC[C@@H](Nc2n[nH]c3nccc(Oc4ccc(Oc5ccccc5)cc4C)c23)C1 [compound 235, (3R)-N-ethyl-3-{[4-(2-methyl-4-phenoxyphenoxy)-1H-pyrazolo[3,4-b]pyridin-3-yl]amino}piperidine-1-carboxamide]
11 |  | 1 to 10 µM | 0.1 to 1 µM | > 10 µM | COCCNc1n[nH]c2nccc(Oc3ccc(C(=O)Nc4cc(C(F)(F)F)ccn4)cc3)c12 [compound 236, 4-({3-[(2-methoxyethyl)amino]-1H-pyrazolo[3,4-b]pyridin-4-yl}oxy)-N-[4-(trifluoromethyl)pyridin-2-yl]benzamide]
12 | 0.1 to 1 µM |  | < 0.1 µM | > 10 µM | Cc1ccnc(NC(=O)c2ccc(Oc3ccnc4[nH]nc(N[C@@H]5CCCN(C(=O)c6nccs6)C5)c34)cc2)c1 [compound 241, (R)—N-(4-methylpyridin-2-yl)-4-(3-(1-(thiazole-2-carbonyl)piperidin-3-ylamino)-1H-pyrazolo[3,4-b]pyridin-4-yloxy)benzamide]
13 | 0.1 to 1 µM |  | < 0.1 µM | > 10 µM | Cc1ccnc(NC(=O)c2ccc(Oc3ccnc4[nH]nc(N[C@@H]5CCCN(C(=O)c6ncc[nH]6)C5)c34)cc2)c1 [compound 242, (R)-4-(3-(1-(1H-imidazole-2-carbonyl)piperidin-3-ylamino)-1H-pyrazolo[3,4-b]pyridin-4-yloxy)-N-(4-methylpyridin-2-yl)benzamide]
14 | 1 to 10 µM |  | < 0.1 µM | > 10 µM | Cc1ccnc(NC(=O)c2ccc(Oc3ccnc4[nH]nc(N[C@@H]5CCCN(C(=O)c6ccc(F)cc6)C5)c34)cc2)c1 [compound 243, (R)-4-(3-(1-(4-fluorobenzoyl)piperidin-3-ylamino)-1H-pyrazolo[3,4-b]pyridin-4-yloxy)-N-(4-methylpyridin-2-yl)benzamide]
15 | 1 to 10 µM |  | < 0.1 µM | > 10 µM | Cc1ccnc(NC(=O)c2ccc(Oc3ccnc4[nH]nc(N[C@@H]5CCCN(C(=O)c6ccc(Cl)cc6)C5)c34)cc2)c1 [compound 244, (R)-4-(3-(1-(4-chlorobenzoyl)piperidin-3-ylamino)-1H-pyrazolo[3,4-b]pyridin-4-yloxy)-N-(4-methylpyridin-2-yl)benzamide]
16 | 1 to 10 µM |  | < 0.1 µM | > 10 µM | Cc1ccc(C(=O)N2CCC[C@@H](Nc3n[nH]c4nccc(Oc5ccc(C(=O)Nc6cc(C)ccn6)cc5)c34)C2)cc1 [compound 245, (R)-4-(3-(1-(4-methylbenzoyl)piperidin-3-ylamino)-1H-pyrazolo[3,4-b]pyridin-4-yloxy)-N-(4-methylpyridin-2-yl)benzamide]
17 | 1 to 10 µM |  | < 0.1 µM | > 10 µM | COc1ccc(C(=O)N2CCC[C@@H](Nc3n[nH]c4nccc(Oc5ccc(C(=O)Nc6cc(C)ccn6)cc5)c34)C2)cc1 [compound 246, (R)-4-(3-(1-(4-methoxybenzoyl)piperidin-3-ylamino)-1H-pyrazolo[3,4-b]pyridin-4-yloxy)-N-(4-methylpyridin-2-yl)benzamide]
18 | 1 to 10 µM |  | < 0.1 µM | > 10 µM | Cc1ccnc(NC(=O)c2ccc(Oc3ccnc4[nH]nc(N[C@@H]5CCCN(C(=O)c6cccc(F)c6)C5)c34)cc2)c1 [compound 247, (R)-4-(3-(1-(3-fluorobenzoyl)piperidin-3-ylamino)-1H-pyrazolo[3,4-b]pyridin-4-yloxy)-N-(4-methylpyridin-2-yl)benzamide]
19 | 1 to 10 µM |  | < 0.1 µM | > 10 µM | Cc1ccnc(NC(=O)c2ccc(Oc3ccnc4[nH]nc(N[C@@H]5CCCN(C(=O)c6ccccc6F)C5)c34)cc2)c1 [compound 248, (R)-4-(3-(1-(2-fluorobenzoyl)piperidin-3-ylamino)-1H-pyrazolo[3,4-b]pyridin-4-yloxy)-N-(4-methylpyridin-2-yl)benzamide]
